Reference: US5217877A, “Process for the preparation of α-glucosidase inhibitor, pradimicin Q” (Bristol-Myers Squibb Company, priority 1991, dated 1993)
≈ marks a conversion by molar mass, not a printed value.

How the values were obtained:
[1] = target: T1, α-glucosidase (Sigma G-5003) (Saccharomyces cerevisiae, UniProt P53341); experiment: α-Glucosidase inhibitory activity (p-nitrophenyl-α-D-glucopyranoside hydrolysis); assay type: biochemical; conditions: for IC50 / IC50 (α-glucosidase inhibitory activity): 37° C., 15 minutes, pH 6.8, 0.7 mM p-nitrophenyl-α-D-glucopyranoside
T1 construct: purchased Sigma G-5003
Description: Forty μl of α-glucosidase (Sigma G-5003, #11 U/mg protein) (0.1 mg/ml in 100 mM phosphate buffer, pH 6.8=[…]) for tests (or the buffer for the control), 950 μl of 0.7 mM p-nitrophenyl-α-D-glucopyranoside (Sigma N1377), and 10 μl of the assay compound (various concentrations dissolved in DMSO) were mixed and incubated at 37° C. for 15 minutes. To the reaction mixture, 1.0 ml of 0.2N NaOH and then 1.0 ml of n-butanol were added and voltex-mixed. […] IC50 was determined from a standard curve of p-nitrophenol released when the assay was run without the test compound (0% inhibition) and when the assay was run without the enzyme (100% inhibition).

mouse melanoma B16 cells = experiment: cells; conditions: B16, read-out: cytotoxic activity IC50

T1 sequence (P53341 whole entry): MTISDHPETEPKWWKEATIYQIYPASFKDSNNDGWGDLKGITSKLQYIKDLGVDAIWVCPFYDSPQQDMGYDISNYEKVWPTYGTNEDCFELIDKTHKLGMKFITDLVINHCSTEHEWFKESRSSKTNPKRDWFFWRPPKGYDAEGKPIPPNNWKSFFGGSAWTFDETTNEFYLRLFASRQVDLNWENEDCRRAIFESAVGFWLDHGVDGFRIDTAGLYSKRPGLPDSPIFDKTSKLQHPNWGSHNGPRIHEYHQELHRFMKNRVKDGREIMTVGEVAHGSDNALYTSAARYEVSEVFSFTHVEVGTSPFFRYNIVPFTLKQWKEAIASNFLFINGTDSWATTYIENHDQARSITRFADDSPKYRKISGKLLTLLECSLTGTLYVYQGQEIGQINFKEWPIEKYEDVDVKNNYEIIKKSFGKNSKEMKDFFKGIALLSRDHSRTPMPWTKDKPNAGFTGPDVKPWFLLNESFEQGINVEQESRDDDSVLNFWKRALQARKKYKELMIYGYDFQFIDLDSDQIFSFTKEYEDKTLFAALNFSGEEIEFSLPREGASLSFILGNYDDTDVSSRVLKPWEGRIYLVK

SMILES: COc1cc(O)c2c(c1)C(=O)c1c(O)c3c(c(OC)c1C2=O)C(O)C(O)c1cc(C)c(C(=O)NC(C)C(=O)O)c(O)c1-3 (stereo not drawn) [Benanomicin C, benanomicin C]
- IC50 [1]: 107 µM

SMILES: COc1cc(O)c2c(c1)C(=O)c1c(cc3c(c1O)-c1c(cc(C)c(C(=O)N[C@H](CO)C(=O)O)c1O)[C@H](O[C@@H]1O[C@H](C)[C@H](N(C)C)[C@H](O[C@@H]4OC[C@@H](O)[C@H](O)[C@H]4O)[C@H]1O)[C@H]3O)C2=O [N,N-dimethylpradimicin FA-2]
- α-glucosidase inhibitory activity (in words) [1]: no α-glucosidase inhibitory activity
- IC50 (α-glucosidase inhibitory activity) [1]: > 100 µg/mL

SMILES: CN[C@@H]1[C@H](O[C@@H]2O[C@H](CO)[C@H](O)[C@H](O)[C@@H]2O)[C@@H](O)[C@H](O[C@@H]2c3cc(C)c(C(=O)N[C@H](C)C(=O)O)c(O)c3-c3c(cc4c(c3O)C(=O)c3cc(OC)cc(O)c3C4=O)[C@@H]2O)O[C@H]1C [Pradimicin L]
- α-glucosidase inhibitory activity (in words) [1]: no α-glucosidase inhibitory activity
- IC50 (α-glucosidase inhibitory activity) [1]: > 100 µg/mL

SMILES: Cc1cc2c(c(O)c1C(=O)O)-c1c(O)c3c(c(O)c1CC2O)C(=O)c1c(O)cc(O)cc1C3=O (stereo not drawn) [Pradimicin Q, pradimicin Q]
- IC50 [1]: 6.46 µM
- IC50 (mouse melanoma B16 cells): 75 µg/mL (≈ 162 µM)

SMILES: CNC1C(C)OC(OC2c3cc(C)c(C(=O)NC(C)C(=O)O)c(O)c3-c3c(cc4c(c3O)C(=O)c3cc(OC)cc(O)c3C4=O)C2O)C(O)C1OC1OCC(O)C(O)C1O (stereo not drawn) [Pradimicin A]
- α-glucosidase inhibitory activity (in words) [1]: no α-glucosidase inhibitory activity
- IC50 [1]: > 119 µM
